Molecular target: T1, Human μ-calpain (Homo sapiens, UniProt P07384)
T1 construct: Human μ-calpain is isolated from erythrocytes; from tissue; host or cells: human erythrocytes
T1 sequence (P07384 1-714): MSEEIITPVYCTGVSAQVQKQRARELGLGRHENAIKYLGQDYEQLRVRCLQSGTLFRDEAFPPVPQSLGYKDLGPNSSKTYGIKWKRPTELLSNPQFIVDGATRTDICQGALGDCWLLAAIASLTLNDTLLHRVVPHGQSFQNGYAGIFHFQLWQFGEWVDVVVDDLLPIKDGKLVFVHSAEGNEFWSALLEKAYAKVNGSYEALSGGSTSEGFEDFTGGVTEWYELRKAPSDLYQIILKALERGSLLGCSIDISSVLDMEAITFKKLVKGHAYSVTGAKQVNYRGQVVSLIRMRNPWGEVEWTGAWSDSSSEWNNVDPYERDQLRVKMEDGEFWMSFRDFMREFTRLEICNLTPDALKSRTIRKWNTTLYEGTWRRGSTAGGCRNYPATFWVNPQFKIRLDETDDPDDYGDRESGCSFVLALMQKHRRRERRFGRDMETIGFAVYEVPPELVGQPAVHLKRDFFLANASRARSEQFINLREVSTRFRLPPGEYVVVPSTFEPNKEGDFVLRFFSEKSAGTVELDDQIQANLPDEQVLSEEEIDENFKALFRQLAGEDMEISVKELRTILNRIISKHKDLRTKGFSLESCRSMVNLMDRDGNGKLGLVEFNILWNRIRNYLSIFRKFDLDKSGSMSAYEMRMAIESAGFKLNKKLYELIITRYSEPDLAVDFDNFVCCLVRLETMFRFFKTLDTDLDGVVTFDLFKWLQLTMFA
T1 sequence (P04632 1-268 partner): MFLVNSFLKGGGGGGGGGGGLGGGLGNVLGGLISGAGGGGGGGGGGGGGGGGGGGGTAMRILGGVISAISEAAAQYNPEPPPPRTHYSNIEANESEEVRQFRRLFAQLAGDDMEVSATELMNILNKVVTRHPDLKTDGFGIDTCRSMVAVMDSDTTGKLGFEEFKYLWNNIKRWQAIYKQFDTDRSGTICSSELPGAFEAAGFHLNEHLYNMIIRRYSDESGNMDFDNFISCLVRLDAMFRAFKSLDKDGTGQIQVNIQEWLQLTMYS
Test: Calpain I and II test (fluorogenic substrate Suc-Leu-Tyr-AMC)
Type: biochemical
Method: The inhibitory properties of calpain inhibitors were studied in a buffer containing 50 mM of Tris-HCl, pH 7.5; 0.1 M of NaCl; 1 mM of dithiotreithol; 0.11 mM of CaCl2, using the fluorogenic calpain substrate Suc-Leu-Tyr-AMC (25 mM dissolved in DMSO, Bachem/Switzerland) (Sasaki et al. J. Biol. Chem. 1984, Vol. 259, 12489-12494). Human μ-calpain is isolated from erythrocytes similarly to the methods of Croall and DeMartino (BBA 1984, Vol. 788, 348-355) and Graybill et al. (Bioorg. & Med. Lett. 1995, Vol. 5, 387-392). After several chromatographic steps (DEAE-Sepharose, Phenyl-Sepharose, Superdex 200 and Blue-Sepharose), the enzyme is obtained in a purity of <[sic] 95%, according to SDS-PAGE, Western blot analysis and N-terminal sequencing. The fluorescence of the cleavage product 7-amino-4-methylcoumarin (AMC) is monitored in a Spex-Fluorolog fluorimeter at λex =380 nm an λem =460 nm. Over a measured range of 60 min, the cleavage of the substrate is linear and the autocatalytic activity of calpain is low when the experiments are carried out at 12° C. (see Chatterjee et al. 1996, Bioorg. & Med. Chem. Lett., Vol 6, 1619-1622). […]
In a typical experiment, 10 μl of substrate (250 μm final) and then 10 μl of μ-calpain (2 μg/ml final, i.e. 18 nM) are added to a 1 ml cuvette containing buffer. The calpain-mediated cleavage of the substrate is measured for 15 to 20 min. […]

O=C[C@H](Cc1ccccc1)NC(=O)c1ccccc1-c1ccccc1 [Example 30, (S)-2-Phenyl-N-(3-phenylpropan-1-al-2-yl)benzamide]
effectiveness compared with N-(1-3-phenylpropan-1-al-2-yl)benzamide (comparison with literature compound (M. R. Angelastro et al., J. Med. Chem. 1990, 33, 11-13)): significantly more effective
Ki (reversible inhibition, 12° C., pH 7.5): < 500 nM
